Tests used:
[1] = target: T1, SMARCA4-HiBiT HeLa cells (protein which is expressed from the SMARCA4 gene) (Homo sapiens, UniProt P51532); test: SMARCA4 degradation assay (HiBiT-fusion HeLa cell line, 24 h, luminescence); format: cell-based
T1 construct: protein which is expressed from the SMARCA2 and SMARCA4 genes; host or cells: HeLa (SMARCA4-HiBiT engineered line)
Method in brief: (§1)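 HiBiT-fusion HeLa lines, 8,000 cells/well, overnight attachment; cpd 10-pt series (typically 10 μM–300 pM), 24 h, 37° C. Lysis with LgBiT + HiBiT substrate, 10 min shaking at RT, luminescence read. DC50 from dose-response fit; % degradation also scored at 1 μM.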

[2] = target: T2, SMARCA2-HiBiT HeLa cells (protein which is expressed from the SMARCA2 gene) (Homo sapiens, UniProt P51531); test: SMARCA2 degradation assay (HiBiT-fusion HeLa cell line, 24 h, luminescence); format: cell-based
T2 construct: protein which is expressed from the SMARCA2 and SMARCA4 genes; host or cells: HeLa (SMARCA2-HiBiT engineered line)
Method in brief: as §1

T1 sequence (P51532 whole entry, the tested form may be a part): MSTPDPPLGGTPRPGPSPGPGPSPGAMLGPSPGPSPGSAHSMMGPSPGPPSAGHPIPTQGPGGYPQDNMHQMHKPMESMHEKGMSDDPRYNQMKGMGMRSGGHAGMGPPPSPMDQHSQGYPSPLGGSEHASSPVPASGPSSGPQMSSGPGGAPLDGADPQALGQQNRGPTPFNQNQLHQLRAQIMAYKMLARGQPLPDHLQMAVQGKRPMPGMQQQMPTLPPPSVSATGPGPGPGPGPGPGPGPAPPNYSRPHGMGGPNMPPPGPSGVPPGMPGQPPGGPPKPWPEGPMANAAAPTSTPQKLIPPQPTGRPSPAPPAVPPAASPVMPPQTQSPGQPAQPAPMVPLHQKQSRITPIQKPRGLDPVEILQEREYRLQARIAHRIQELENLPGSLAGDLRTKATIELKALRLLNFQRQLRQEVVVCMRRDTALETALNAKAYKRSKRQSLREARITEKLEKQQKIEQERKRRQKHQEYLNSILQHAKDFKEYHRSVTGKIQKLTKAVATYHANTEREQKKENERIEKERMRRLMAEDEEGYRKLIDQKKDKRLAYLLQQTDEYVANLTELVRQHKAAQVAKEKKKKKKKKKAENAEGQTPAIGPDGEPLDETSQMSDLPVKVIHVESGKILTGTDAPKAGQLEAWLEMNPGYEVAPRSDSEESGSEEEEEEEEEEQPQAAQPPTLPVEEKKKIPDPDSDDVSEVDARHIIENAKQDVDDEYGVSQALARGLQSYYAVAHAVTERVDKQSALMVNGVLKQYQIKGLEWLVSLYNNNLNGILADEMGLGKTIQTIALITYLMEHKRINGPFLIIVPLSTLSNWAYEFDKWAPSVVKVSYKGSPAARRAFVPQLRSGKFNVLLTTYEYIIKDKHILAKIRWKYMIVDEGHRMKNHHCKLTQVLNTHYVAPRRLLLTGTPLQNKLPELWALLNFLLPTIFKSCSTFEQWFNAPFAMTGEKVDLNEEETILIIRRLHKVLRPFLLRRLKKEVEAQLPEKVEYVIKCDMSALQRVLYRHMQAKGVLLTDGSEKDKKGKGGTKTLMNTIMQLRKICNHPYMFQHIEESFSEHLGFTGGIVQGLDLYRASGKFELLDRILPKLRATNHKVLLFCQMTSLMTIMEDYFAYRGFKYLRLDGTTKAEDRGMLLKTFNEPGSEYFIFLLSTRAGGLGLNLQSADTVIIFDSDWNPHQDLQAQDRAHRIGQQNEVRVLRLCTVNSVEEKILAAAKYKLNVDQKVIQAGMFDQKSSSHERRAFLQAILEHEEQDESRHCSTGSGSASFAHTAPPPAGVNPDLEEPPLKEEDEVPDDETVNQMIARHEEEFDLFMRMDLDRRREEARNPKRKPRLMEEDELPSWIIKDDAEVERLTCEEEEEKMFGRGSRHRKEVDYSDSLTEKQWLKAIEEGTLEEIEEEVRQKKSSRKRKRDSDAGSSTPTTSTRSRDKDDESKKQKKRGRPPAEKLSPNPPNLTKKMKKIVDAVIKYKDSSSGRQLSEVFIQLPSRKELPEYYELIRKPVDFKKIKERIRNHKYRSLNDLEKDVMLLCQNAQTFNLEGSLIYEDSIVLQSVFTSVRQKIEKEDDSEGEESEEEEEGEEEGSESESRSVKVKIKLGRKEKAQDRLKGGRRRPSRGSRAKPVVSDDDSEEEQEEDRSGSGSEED
T2 sequence (P51531 whole entry, the tested form may be a part): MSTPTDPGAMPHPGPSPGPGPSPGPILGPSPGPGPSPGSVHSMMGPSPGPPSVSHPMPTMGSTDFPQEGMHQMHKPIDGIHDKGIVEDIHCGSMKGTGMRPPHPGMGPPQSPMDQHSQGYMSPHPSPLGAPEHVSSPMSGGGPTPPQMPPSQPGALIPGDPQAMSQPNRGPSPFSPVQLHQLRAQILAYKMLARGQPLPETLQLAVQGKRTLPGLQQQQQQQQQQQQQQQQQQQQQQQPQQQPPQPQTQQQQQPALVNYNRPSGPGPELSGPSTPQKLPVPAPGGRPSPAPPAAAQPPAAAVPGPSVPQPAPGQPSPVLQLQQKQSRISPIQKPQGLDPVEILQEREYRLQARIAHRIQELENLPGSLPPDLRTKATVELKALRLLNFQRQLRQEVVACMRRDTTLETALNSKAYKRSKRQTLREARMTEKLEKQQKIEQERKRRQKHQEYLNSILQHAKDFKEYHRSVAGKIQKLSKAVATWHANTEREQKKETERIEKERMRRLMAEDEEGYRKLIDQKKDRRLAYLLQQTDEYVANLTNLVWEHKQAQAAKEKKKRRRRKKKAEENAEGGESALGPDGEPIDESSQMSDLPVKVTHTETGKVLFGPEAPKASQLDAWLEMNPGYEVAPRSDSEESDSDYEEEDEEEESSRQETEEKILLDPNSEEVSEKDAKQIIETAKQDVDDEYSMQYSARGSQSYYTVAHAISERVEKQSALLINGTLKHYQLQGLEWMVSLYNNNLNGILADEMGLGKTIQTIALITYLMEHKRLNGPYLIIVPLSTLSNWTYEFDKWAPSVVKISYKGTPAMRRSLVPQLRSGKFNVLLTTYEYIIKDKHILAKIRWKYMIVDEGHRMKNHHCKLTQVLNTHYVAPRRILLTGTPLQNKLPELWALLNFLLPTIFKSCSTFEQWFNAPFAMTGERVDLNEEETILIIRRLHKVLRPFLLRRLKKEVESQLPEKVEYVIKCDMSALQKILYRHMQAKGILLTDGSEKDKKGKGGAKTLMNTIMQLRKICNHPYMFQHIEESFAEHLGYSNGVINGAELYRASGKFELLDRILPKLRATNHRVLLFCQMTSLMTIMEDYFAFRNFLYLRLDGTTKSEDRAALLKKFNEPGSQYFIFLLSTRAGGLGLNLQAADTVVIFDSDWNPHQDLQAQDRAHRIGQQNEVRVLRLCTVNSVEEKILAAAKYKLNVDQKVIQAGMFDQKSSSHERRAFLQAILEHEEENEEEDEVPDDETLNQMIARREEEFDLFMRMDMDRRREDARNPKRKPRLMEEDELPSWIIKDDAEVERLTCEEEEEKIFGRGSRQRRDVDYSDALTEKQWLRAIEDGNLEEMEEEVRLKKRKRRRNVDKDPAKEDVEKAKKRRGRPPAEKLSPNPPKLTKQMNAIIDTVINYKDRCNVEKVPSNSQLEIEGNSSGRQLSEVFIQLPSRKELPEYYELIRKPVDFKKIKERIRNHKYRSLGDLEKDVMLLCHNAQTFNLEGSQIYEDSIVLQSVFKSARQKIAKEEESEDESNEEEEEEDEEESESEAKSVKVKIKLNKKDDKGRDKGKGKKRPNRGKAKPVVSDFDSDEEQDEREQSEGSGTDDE

Structure (SMILES) | DC50 [1] [µM] | inhibition at 1 µM ([1]; @ 1 μM) [%] | DC50 [2] [µM] | SMARCA2 % Degradation @ 1 μM ([2]; @ 1 μM) | SMARCA4 % Degradation @ 1 μM ([1]; @ 1 μM) | inhibition at 1 µM ([1]; 1 μM) [%] | SMARCA2 % Degradation @ 1 μM ([2]; 1 μM)
CNCC#Cc1nccc(N2C3CCC2CN(c2cc(-c4ccccc4O)nnc2N)C3)n1 [Compound P-291, 0-[6-amino-5-(8-{2-[3-(methylamino)-1-propynyl]-4-pyrimidinyl}-3,8-diazabicyclo[3.2.1]oct-3-yl)-3-pyridazinyl]phenol] | 0.05 to 0.5 | < 30 | 0.05 to 0.5 | ++ (++=30-70%) |  |  | 
C[C@H]1CN(c2ccnc(C#CCN)n2)CCN1c1cc(-c2ccccc2O)nnc1N [Compound P-86, (S)-2-(6-amino-5-(4-(2-(3-aminoprop-1-yn-1-yl)pyrimidin-4-yl)-2-methylpiperazin-1-yl)pyridazin-3-yl)phenol] | > 5 |  | 0.5 to 5 | + (+=<30%) |  |  | 
CNCC#Cc1nccc(N2CCN(c3cc(-c4ccccc4O)nnc3N)[C@@H](C)C2)n1 [Compound P-292, 0-{5-[(S)-2-methyl-4-{2-[3-(methylamino)-1-propynyl]-4-pyrimidinyl}-1-pipcrazinyl]-6-amino-3-pyridaziny1} phenol] | < 0.05 | < 30 | 0.05 to 0.5 | ++ (++=30-70%) |  |  | 
Cn1ccc(OCC#Cc2nccc(N3CCCN(c4cc(-c5ccccc5O)nnc4N)CC3)n2)n1 [Compound P-108, 2-(6-amino-5-(4-(2-(3-((1-methyl-1H-pyrazol-3-yl)oxy)prop-1-yn-1-yl)pyrimidin-4-yl)-1,4-diazepan-1-yl)pyridazin-3-yl)phenol] | 0.05 to 0.5 | > 70 | 0.05 to 0.5 | +++ (+++=>70%) |  |  | 
C[C@@H]1CCN(c2cc(-c3ccccc3O)nnc2N)CCN1c1ccc(C(F)(F)F)c(C#CCN(C)C)n1 [Compound P-395, 0-{5-[(R)-4-{6-[3-(dimethylamino)-1-propynyl]-5-(trifluoromcthyl)-2-pyridyl}-5-methyl-1,4-diazepan-1-yl]-6-amino-3-pyridazinyl}phenol] | > 5 |  | 0.5 to 5 |  |  |  | 
C[C@@H]1CCN(c2cc(-c3ccccc3O)nnc2N)CCN1c1ccnc(C#CC2CCCO2)n1 (stereo partly drawn) [Compound P-211, o-{5-[(R)-5-methyl-4-{2-[2-(tetrahydro-2-furyl)ethynyl]-4-pyrimidinyl}-1,4-diazepan-1-yl]-6-amino-3-pyridaziny1} phenol] | 0.5 to 5 | < 30 | 0.05 to 0.5 | ++ (++=30-70%) |  |  | 
Nc1nnc(-c2ccccc2O)cc1N1CCCN(c2ccnc(C#CCN3CCOC3=O)n2)CC1 [Compound P-374, 3-[3-(4-{4-[3-amino-6-(o-hydroxyphenyl)-4-pyridazinyl]-1,4-diazepan-1-yl}-2-pyrimidinyl)-2-propynyl]-1,3-oxazolidin-2-one] | 0.05 to 0.5 | 30 to 70 | 0.05 to 0.5 | +++ (+++=>70%) |  |  | 
Nc1nnc(-c2ccccc2O)cc1N1CCCN(c2ccnc(C#CCN3CCn4c(nnc4C(F)(F)F)C3)n2)CC1 [Compound P-363, 0-{6-amino-5-[4-(2-{3-[3-(trifluoromethyl)-4,5,6,7-tetrahydro-1,2,3a,6-tetraaza-6-indenyl]-1-propynyl}-4-pyrimidinyl)-1,4-diazepan-1-yl]-3-pyridaziny1} phenol] | 0.5 to 5 | 30 to 70 | 0.5 to 5 | ++ (++=30-70%) |  |  | 
Cc1cc(C)n(CC#Cc2nccc(N3CCN(c4cc(-c5ccccc5O)nnc4N)CC[C@H]3C)n2)n1 [Compound P-177, o-{5-[(R)-4-{2-[3-(3,5-dimethyl-1-pyrazolyl)-1-propynyl]-4-pyrimidinyl}-5-methyl-1,4-diazepan-1-yl]-6-amino-3-pyridazinyl}phenol] | 0.05 to 0.5 | < 30 | 0.05 to 0.5 | ++ (++=30-70%) |  |  | 
Nc1nnc(-c2ccccc2O)cc1N1CC2CC(C1)N2c1ccnc(C#CCN2CC(F)(F)C2)n1 [Compound P-204, o-[6-amino-5-(6-{2-[3-(3,3-difluoro-1-azetidinyl)-1-propynyl]-4-pyrimidinyl}-3,6-diazabicyclo[3.1.1]hept-3-yl)-3-pyridazinyl]phenol] | 0.5 to 5 | 30 to 70 | 0.05 to 0.5 | ++ (++=30-70%) |  |  | 
CC(C)(C)OC(=O)NC1CCN(CC#Cc2nccc(N3C4CCC3CN(c3cnnc(-c5ccccc5O)c3)C4)n2)CC1 [Compound P-368, tert-butyl-1-[3-(4-{3-[6-(o-hydroxyphenyl)-4-pyridazinyl]-3,8-diazabicyclo[3.2.1]oct-8-y1}-2-pyrimidinyl)-2-propynyl]-4-piperidylaminoformylate] | 0.05 to 0.5 |  | 0.05 to 0.5 | ++ (++=30-70%) | ++ (++=30-70%) |  | 
CN(C)CC#Cc1nccc(N2CCC3(CC2)CCN(c2cc(-c4ccccc4O)nnc2N)C3)n1 [Compound P-344, 0-[6-amino-5-(8-{2-[3-(dimethylamino)-1-propynyl]-4-pyrimidinyl}-2,8-diaza-2-spiro[4.5]decyl)-3-pyridazinyl]phenol] | > 5 |  | < 0.05 | ++ (++=30-70%) |  |  | 
C[C@@H]1CCN(c2cc(-c3ccccc3O)nnc2N)CCN1c1ccnc(C#CCn2ccnc2)c1 [Compound P-428, 0-{5-[(R)-4-{2-[3-(1-imidazolyl)-1-propynyl]-4-pyridyl}-5-methyl-1,4-diazepan-1-yl]-6-amino-3-pyridazinyl}phenol] | 0.05 to 0.5 |  | 0.05 to 0.5 |  |  | > 70 | +++ (+++=>70%)
Nc1nnc(-c2ccccc2O)cc1N1CCC2CCN(c3ccnc(C#CCNC(=O)c4cc5ncccn5n4)n3)C2C1 (stereo not drawn) [Compound P-37, N-(3-(4-(6-(3-amino-6-(2-hydroxyphenyl)pyridazin-4-yl)octahydro-1H-pyrrolo[2,3-c]pyridin-1-yl)pyrimidin-2-y1)prop-2-yn-1-yl)pyrazolo[1,5-a]pyrimidine-2-carboxamide] | 0.05 to 0.5 | 30 to 70 | 0.05 to 0.5 | ++ (++=30-70%) |  |  | 
COC1CCN(CC#Cc2nccc(N3CCCN(c4cc(-c5ccccc5O)nnc4N)CC3)n2)CC1 [Compound P-378, 0-[6-amino-5-(4-{2-[3-(4-methoxy-1-piperidyl)-1-propynyl]-4-pyrimidinyl}-1,4-diazepan-1-yl)-3-pyridazinyl]phenol] | 0.05 to 0.5 | 30 to 70 | 0.05 to 0.5 | +++ (+++=>70%) |  |  | 
C[C@@H]1CCN(c2cc(-c3ccccc3O)nnc2N)CCN1c1ccnc(C#CCN2CCC(C)(F)C2)n1 (stereo partly drawn) [Compound P-210, o-{5-[(R)-4-{2-[3-(3-fluoro-3-methyl-1-pyrrolidinyl)-1-propynyl]-4-pyrimidinyl}-5-methyl-1,4-diazepan-1-yl]-6-amino-3-pyridaziny1} phenol] | < 0.05 | 30 to 70 | < 0.05 | ++ (++=30-70%) |  |  | 
CCc1cc(C(=O)NCC#Cc2nccc(N3CCN(c4cc(-c5ccccc5O)nnc4N)CC3)n2)nn1C [Compound P-2, N-[3-(4-{4-[3-amino-6-(2-hydroxyphenyl)pyridazin-4-yl]piperazin-1-yl}pyrimidin-2-yl)prop-2-yn-1-yl]-5-ethyl-1-methyl-1H-pyrazole-3-carboxamide] | 0.05 to 0.5 | 30 to 70 | 0.05 to 0.5 | ++ (++=30-70%) |  |  | 
CN1CCC(C#Cc2nccc(N3CCCN(c4cc(-c5ccccc5O)nnc4N)CC3)n2)CC1 [Compound P-256, o-[6-amino-5-(4-{2-[2-(1-methyl-4-piperidyl)ethynyl]-4-pyrimidinyl}-1,4-diazepan-1-yl)-3-pyridazinyl]phenol] | 0.5 to 5 | 30 to 70 | 0.05 to 0.5 | ++ (++=30-70%) |  |  | 
CC(C#Cc1nc(N2CCN(c3cc(-c4ccccc4O)nnc3N)CC[C@H]2C)ccc1C#N)N(C)C (stereo partly drawn) [Compound P-407, 6-{(R)-4-[3-amino-6-(o-hydroxyphenyl)-4-pyridazinyl]-7-methyl-1,4-diazepan-1-yl}-2-[3-(dimethylamino)-1-butynyl]nicotinonitrile] | < 0.05 |  | < 0.05 |  |  | < 30 | ++ (++=30-70%)
Nc1nnc(-c2ccccc2O)cc1N1CCCN(c2ccnc(C#CCNC(=O)NC3CCC3)n2)CC1 [Compound P-325, 0-[6-amino-5-(4-{2-[3-(3-cyclobutylureido)-1-propynyl]-4-pyrimidinyl}-1,4-diazepan-1-yl)-3-pyridazinyl]phenol] | 0.05 to 0.5 | 30 to 70 | 0.5 to 5 | ++ (++=30-70%) |  |  | 
Nc1nnc(-c2ccccc2O)cc1N1CC2CCC(C1)N2c1ccnc(C#CCCNC(=O)c2cc3ncccn3n2)n1 [Compound P-96, N-(4-(4-(3-(3-amino-6-(2-hydroxyphenyl)pyridazin-4-yl)-3,8-diazabicyclo[3.2.1]octan-8-yl)pyrimidin-2-yl)but-3-yn-1-yl)pyrazolo[1,5-a]pyrimidine-2-carboxamide] | 0.05 to 0.5 | > 70 | 0.5 to 5 | ++ (++=30-70%) |  |  | 
C[C@@H]1CCN(c2cc(-c3ccccc3O)nnc2N)CCN1c1ccnc(C#CC23CCC(C2)N3)n1 (stereo partly drawn) [Compound P-196, o-{5-[(R)-4-(2-{2-(5-azabicyclo[2.1.1]hex-1-yl)ethynyl}-4-pyrimidinyl)-5-methyl-1,4-diazepan-1-yl]-6-amino-3-pyridazinyl}phenol] | 0.5 to 5 | < 30 | 0.5 to 5 | ++ (++=30-70%) |  |  | 

Reference: patent US20260265238A1, “COMPOUNDS AND PHARMACEUTICAL COMPOSITIONS THAT DEGRADE SWI/SNF-RELATED MATRIX-ASSOCIATED ACTIN-DEPENDENT REGULATOR OF CHROMATIN SUBFAMILY A” (Plexium, Inc., priority 2023, published 2026)
